According to article PMC11172478, “1,3,5-Triazine as Branching Connector for the Construction of Novel Antimicrobial Peptide Dendrimers: Synthesis and Biological Characterization” (International Journal of Molecular Sciences, 2024):
Starred links: 1 amine or outer side, 2 acyl side, 3 side chain; linkers in the order of their positions; H or OH if unused. Positions of bridges follow the written chain, without caps; N, C: chain ends. Residues, ends and D or L forms follow the SMILES beside them. Chains are numbered I, II in the order given. X1 = O=C(c1ccc(Oc2nc(NCCN[*:2])nc(NCCN[*:3])n2)cc1)[*:1]

Columns and labels:
MDR E. coli [1] = type: cell-based; conditions: 24 h
Method: E. coli ATCC 25922, P. aeruginosa ATCC 27853, S. aureus ATCC 29213, P. aeruginosa 666 SJD (ciprofloxacin-resistant), P. aeruginosa P12, P13, P15, P16 and P17 (MDR isolates) and E. coli 7987, 5545, 8248, 13974, 7259 and 208691 (MDR isolates) from our own collection were included in the present study.
The antimicrobial activity of the dendrimers was evaluated against E. coli ATCC 25922, P. aeruginosa ATCC 27853 and S. aureus ATCC 29213 strains. The MIC values were determined by the broth microdilution method. Briefly, the different strains were grown in Muller Hinton broth cation adjusted (MHBCA) medium overnight at 37 °C with shaking at 200 rpm. The bacterial cultures were then adjusted to OD625nm of 0.08–0.1, and 5 μL of each diluted suspension was added to 96-well plates previously filled with MHBCA and serially diluted peptides. Plates were incubated for 24 h at 37 °C. Finally, the MIC was determined macroscopically, based on the visual turbidity of the wells.

L-929 fibroblasts = test: Cytotoxicity, resazurin reduction; type: cell-based, murine; conditions: L-929 cells, 24 h, resazurin fluorescence
Method: The cytotoxicity assay was performed in the human hepatocellular carcinoma cell line Hep G2 ATCC and murine L-929 fibroblasts (NCTC clone 929, ECACC 88102702) obtained from the laboratory of Dr. Pérez-Tomás (Cancer Cell Biology, University of Barcelona). The cytotoxicity of the selected peptides was determined by measuring the intracellular reduction of resazurin sodium salt (Sigma-Aldrich, St. Louis, MO, USA). Briefly, HepG2 and L-929 cells were grown in RPMI 1640 or MEM medium, respectively (Biochrom AG, Berlin, Germany), supplemented with 10% fetal bovine serum. Cells from pre-confluent cultures were harvested with trypsin-EDTA and maintained at 37 °C in 5% CO2. Then, 100 µL of each cell line was seeded into 96-well flat-bottomed microplates and incubated for 24 h at 37 °C. The medium was then replaced with 200 μL of medium containing the dendrimers at concentrations ranging from 64 to 0.125 μg/mL and the microplates were incubated for 24 h at 37 °C. Next, 20 μL of resazurin was added to each well and the plates were incubated under the same conditions for 24 h. Fluorescence was measured using a multiwell scanning spectrophotometer at an excitation wavelength of 530 nm and an emission wavelength of 590 nm. Cytotoxicity was then calculated by comparing the fluorescence of the treated and untreated cells (Figure S22).

[2] = Black lipid bilayers conductance; conditions: DiPhPC/PS 4:1 in n-decane, 1 M KCl, −80, −120 and −180 mV
Method: The basic methods have been described previously. Membranes were prepared from 1% lipid a mixture of di-phytanoyl-phosphatidylcholine/di-phytanoylphosphatidylserine (DiPhPC/PS) in a molar ratio of 4:1 in n-decane (Avanti Polar Lipids, Delfzyl, The Netherlands). Bilayers were painted over a 2 mm^2 hole in a Teflon divider separating two compartments containing 5 mL each of a bathing solution of 1MKCl. Voltages were applied across the membrane via calomel electrodes connected by a salt bridge. The resultant current was amplified 10^8-fold by a current amplifier and recorded on a Rikadenski chart recorder. A concentration of 1 μg/mL of the dendrimer was used based on the results of Wu et al..

[3] = tested on: E. coli susceptible strains; test: Checkerboard assay; type: cell-based
Method: (§1) A checkerboard assay was used to determine the fractional inhibitory concentrations (FICs) of dendrimers in combination with conventional antibiotics. Briefly, each well in a 96-well plate was inoculated with 100 µL of a bacterial inoculum of 1 × 10^6 CFU/mL, and the plates were incubated at 37 °C for 24 h. The FIC was calculated after identifying the first well in each row without growth (MIC), according to the following formula: FIC of drug A (FIC A) = (MIC of drug A in combination)/(MIC of A); FIC of drug B (FIC B) = (MIC of drug B in combination)/(MIC of B). The FIC index (FICI) values were calculated by adding the FIC of drug A to the FIC of drug B [46]. The interpretation of the (FICI) was the following: FICI ≤ 0.5, synergy; 0.5 < FICI ≤ 1, additivity; 1 < FICI ≤ 2 […].

MDR E. coli [4] = test: Checkerboard assay; type: cell-based; conditions: for interaction with ciprofloxacin: MDR E. coli; for interaction with rifampicin: strain not stated at this place, b42: results for rifampin quite similar to ciprofloxacin
Method: as §1

[5] = tested on: P. aeruginosa susceptible and resistant strains; test: Checkerboard assay; type: cell-based; conditions: both susceptible and resistant strains
Method: as §1

E. coli ATCC 25922 = type: cell-based; conditions: for effect on growth curve (in words): E. coli ATCC 25922, TSB, MIC, ½ MIC and ¼ MIC, 37 °C, OD 850 nm
Method: The real-time effect of the peptide dendrimers was examined on the growth curves of E. coli ATCC 25922 and P. aeruginosa ATCC 27853. Volumes of 10 mL of TSB liquid cultures containing 1–5 × 10^5 CFU/mL in the logarithmic phase were adjusted in Falcon tubes. Peptide dendrimers were then added at MIC and sub-inhibitory concentrations (½ MIC and ¼ MIC). Incubation was performed in RTS-1C real-time reverse spin bioreactors RTS-1 (Biosan) for 24 h at 37 °C and 2000 rpm. Growth was measured noninvasively as optical density (OD 850 nm) every 15 min.

E. coli 208691 = test: Intracellular accumulation of acridine orange; type: cell-based; conditions: E. coli 208691, dendrimers at MIC, ½ MIC, ¼ MIC, AO 0.25 µg/mL, 30 min
Method: (§2) The assay was performed as previously described by Armengol et al. including control and clinical strains (E. coli 208691 and P. aeruginosa 666 SJD) previously studied by our group. Briefly, 96-well flat-bottomed microtiter plates (Guangzhou Jet Bio-Filtration Co., Ltd., Mianyang, China) were used. Overnight cultures were diluted in 1/4 Ringer’s solution to an OD520nm of 1.5, and 100 µL was added to the wells previously filled with 100 µL of Ringer’s solution. Acridine Orange (AO) was added to a final concentration of 0.25 µg/mL. The inoculated plates were then incubated for 30 min with shaking, after which the fluorescence was measured in a FLUOstar OPTIMA fluorescence microplate reader (BMG Labtech, Ortenberg, Germany).
(§3) To determine the uptake and accumulation of AO by bacteria, different scenarios were compared. First, bacteria were examined in the presence of PAβN at 20 µg/mL, and then in the presence of different concentrations of the dendrimers at (MIC, ½ MIC, ¼ MIC). The results in each condition were expressed as the percentage increase in fluorescence with respect to the control.

P. aeruginosa ATCC 27853 = test: Intracellular accumulation of acridine orange; type: cell-based; conditions: P. aeruginosa ATCC 27853, dendrimers at MIC
Method: as §2, §3

CC(C)C[C@H](NC(=O)[C@H](CCCCN)NC(=O)[C@H](CC(C)C)NC(=O)[C@H](CCCCN)NC(=O)[C@H](CC(C)C)Nc1nc(NCCNC(=O)[C@H](CCCCN)NC(=O)[C@H](CC(C)C)NC(=O)[C@H](CCCCN)NC(=O)[C@H](CC(C)C)NC(=O)[C@H](CCCCN)NC(=O)[C@@H](N)CC(C)C)nc(NCCNC(=O)[C@H](CCCCN)NC(=O)[C@H](CC(C)C)NC(=O)[C@H](CCCCN)NC(=O)[C@H](CC(C)C)NC(=O)[C@H](CCCCN)NC(=O)[C@@H](N)CC(C)C)n1)C(=O)N[C@@H](CCCCN)C(N)=O [Dendrimer 2, H-[(LK)3-EDA]2-TA-(LK)3-NH2]
MIC values in MDR E. coli (span over isolates) (MDR E. coli [1]): 2 to 8 µg/mL
% Cytotoxicity at 64µg/mL, L-929 (L-929 fibroblasts): 0%
channel formation in planar lipid bilayers (conductance) [2]: did not induce membrane channels
interaction with ciprofloxacin [3]: additive effect
interaction with ciprofloxacin (MDR E. coli [4]): synergistic
interaction with rifampicin (MDR E. coli [4]): synergic
interaction with ciprofloxacin [5]: additive effect
effect on growth curve (in words) (E. coli ATCC 25922; 24 h): full growth inhibition only at the MIC

CC(C)C[C@H](NC(=O)c1ccc(Oc2nc(NCCNC(=O)[C@H](CCCCN)NC(=O)[C@H](CC(C)C)NC(=O)[C@H](CCCCN)NC(=O)[C@H](CC(C)C)NC(=O)[C@H](CCCCN)NC(=O)[C@@H](N)CC(C)C)nc(NCCNC(=O)[C@H](CCCCN)NC(=O)[C@H](CC(C)C)NC(=O)[C@H](CCCCN)NC(=O)[C@H](CC(C)C)NC(=O)[C@H](CCCCN)NC(=O)[C@@H](N)CC(C)C)n2)cc1)C(=O)N[C@@H](CCCCN)C(=O)N[C@@H](CC(C)C)C(=O)N[C@@H](CCCCN)C(=O)N[C@@H](CC(C)C)C(=O)N[C@@H](CCCCN)C(N)=O [Dendrimer 1, H-[(LK)3]2-(EDA)2-TA-PHBA-(LK)3-NH2] (I: LKLKLK-NH2 / II: H-LKLKLK / III: H-LKLKLK; linker I:N-II:C-III:C via X1)
% Cytotoxicity at 64µg/mL, L-929 (L-929 fibroblasts): 2.8%
channel formation in planar lipid bilayers (conductance) [2]: did not induce membrane channels
AO accumulation (in words) (E. coli 208691): marked increase in AO accumulation
AO accumulation (in words) (P. aeruginosa ATCC 27853): slight increase in AO accumulation
interaction with ciprofloxacin [3]: additive effect
interaction with ciprofloxacin (MDR E. coli [4]): synergistic
interaction with rifampicin (MDR E. coli [4]): synergic
interaction with ciprofloxacin [5]: additive effect
MIC value deduced from microfermentor experiments (E. coli ATCC 25922; ATCC 25922, 24 h): < 2 µg/mL
effect on growth curve (in words) (E. coli ATCC 25922; 24 h): fully inhibited growth at the three concentrations tested
concentration that completely inhibited detectable growth (E. coli ATCC 25922; E. coli ATCC 25922, growth curves, 24 h): 2 µg/mL
